Source: publication PMC11062899, “De novo development of small cyclic peptides that are orally bioavailable” (Nature Chemical Biology, 2023)
Where “and” joins values, the source holds several entries; their conditions need not be identical. Equal entries are not always repeated.

Assays:
porcine pepsin = target: T1, porcine pepsin (Sus scrofa, UniProt P00791); assay: Peptide stability in simulated gastric fluid (SGF); format: in vitro ADME; conditions: for SGF stability, Residual peptide Average / SGF stability, Residual peptide: after 8 h vs 0 h (TIC); for SGF stability, Residual peptide Average: average of R1-R3; for SGF stability, Residual peptide: single replicates R1-R3; for remaining at 8 h: simulated gi fluid, 37 °C, pH 1.2, read-out: Proteolytic stability: SGF (8 h) % remaining
T1 construct: 0.32 g of porcine pepsin (Sigma-Aldrich, P7125) was dissolved under gentle agitation; purchased Sigma-Aldrich P7125
T1 sequence (P00791 60-385): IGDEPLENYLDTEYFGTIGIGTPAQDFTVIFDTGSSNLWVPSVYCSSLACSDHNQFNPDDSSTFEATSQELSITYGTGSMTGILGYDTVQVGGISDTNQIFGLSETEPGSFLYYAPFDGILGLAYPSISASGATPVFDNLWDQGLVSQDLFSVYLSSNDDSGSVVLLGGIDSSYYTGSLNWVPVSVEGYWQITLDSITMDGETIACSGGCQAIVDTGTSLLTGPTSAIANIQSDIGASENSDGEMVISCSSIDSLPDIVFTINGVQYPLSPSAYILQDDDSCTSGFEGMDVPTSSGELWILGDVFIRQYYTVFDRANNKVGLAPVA
Outline: (§1)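 Peptide from a 1 mM DMSO stock was added to fluid pre-warmed at 37 °C. SGF was pH 1.2 NaCl with porcine pepsin (0.32 g per 100 ml), and SIF was pH 6.8 potassium phosphate with porcine pancreatin (1 g per 100 ml). Supernatant peptide was quantified by LC–MS, with residual expressed as T1/T0.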

human α-thrombin = human α-thrombin (Homo sapiens, UniProt P00734); assay: Protease inhibition, Ki for human α-thrombin (fluorogenic substrate Z-Gly-Gly-Arg-AMC); format: biochemical; conditions: replicates R1-R3
Outline: (§2)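 Ki values come from Cheng–Prusoff correction of IC50, itself fitted by four-parameter logistic regression of activity versus a no-peptide control. Assays used 2 nM human or 3 nM rat thrombin, 50 μM Z-Gly-Gly-Arg-AMC, 30 min kinetic fluorescence at 25 °C.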

[1] = Metabolic stability in rat liver microsomes (RLMs); conditions: rat, microsomes
rat α-thrombin = target: T2, rat α-thrombin (Rattus norvegicus, UniProt P18292); assay: Protease inhibition, Ki for rat α-thrombin (fluorogenic substrate Z-Gly-Gly-Arg-AMC); format: biochemical; conditions: replicates R1-R3
T2 construct: rat α-thrombin (Molecular Innovations) were used at final concentrations of 2 nM and 3 nM; purchased Molecular Innovations
Outline: as §2

[2] = Passive artificial membrane permeability (PAMPA); conditions: for PAMPA permeability: % permeability: 50 μM, 12–18 h, acceptor concentration relative to equilibrium; for Papp at 50 μM / Permeability% Average / Permeability% R1 / Permeability% R3: PAMPA; for Papp at 50 μM: pH 7.4; for Permeability% Average: average of R1-R3; for Permeability% R1: replicate R1; for Permeability% R1 / Permeability% R3: TIC of top well sample relative to sample at theoretical equilibrium; for Permeability% R3: replicate R3
porcine pancreatin = assay: Peptide stability in simulated intestinal fluid (SIF); format: in vitro ADME; conditions: after 8 h vs 0 h (TIC); for SIF stability, Residual peptide Average: average of R1-R3; for SIF stability, Residual peptide: single replicates R1-R3
Outline: as §1

[3] = as above; format: in vitro ADME, porcine; conditions: simulated gi fluid; 8 h, 37 °C, pH 6.8; read-out: Proteolytic stability: SIF (8 h) % remaining
Outline: as §1

[4] = peptide 1.33E+02 uM, slope of proteolytic substrate cleavage over time
[5] = CL (ul/min/mg protein) R1, RLM CL, replicate R1
[6] = CL (ul/min/mg protein) R2, RLM CL, replicate R2
[7] = CL (ul/min/mg protein) R3, RLM CL, replicate R3
[8] = Half Life (min) R1, RLM metabolic stability, replicate R1, 0-60 min
[9] = Half Life (min) R2, RLM metabolic stability, replicate R2, 0-60 min
[10] = Half Life (min) R3, RLM metabolic stability, replicate R3, 0-60 min
[11] = Metabolic stability: Half life T1/2 (min), RLMs, mean and SD, three measurements
[12] = Metabolic stability: RLM CL (ul/min/mg), RLMs, mean and SD, three measurements

## O=C1NCCSCc2cccc(n2)CSC[C@H](NC(=O)c2ccc(Cl)s2)C(=O)N[C@@H](CO)C(=O)NCc2ccc1cc2 [compound 25]
Porcine pepsin
  SGF stability, Residual peptide Average: 101.05
  SGF stability, Residual peptide: 110.75 and 95.01 and 97.38
  remaining at 8 h: 101 ± 8%
Human α-thrombin; peptide 1.02E-03 uM
  Human alpha thrombin inhibition, slope normalized to DMSO: 94.7 and 95.3 and 98.5
Human α-thrombin; peptide 1.04E+00 uM
  Human alpha thrombin inhibition, slope normalized to DMSO: 75.5 and 74.4 and 76.2
Human α-thrombin; peptide 1.27E-04 uM
  Human alpha thrombin inhibition, slope normalized to DMSO: 97.4 and 68.3 and 98.0
Human α-thrombin; peptide 1.30E-01 uM
  Human alpha thrombin inhibition, slope normalized to DMSO: 93.0 and 91.1 and 92.8
Human α-thrombin; [4]
  Human alpha thrombin inhibition, slope normalized to DMSO: 13.5 and 15.1 and 12.6
Human α-thrombin; peptide 1.63E-02 uM
  Human alpha thrombin inhibition, slope normalized to DMSO: 97.4 and 90.6 and 97.7
Human α-thrombin; peptide 1.67E+01 uM
  Human alpha thrombin inhibition, slope normalized to DMSO: 26.1 and 29.0 and 29.2
Human α-thrombin; peptide 2.03E-03 uM
  Human alpha thrombin inhibition, slope normalized to DMSO: 98.6 and 102.5 and 100.6
Human α-thrombin; peptide 2.08E+00 uM
  Human alpha thrombin inhibition, slope normalized to DMSO: 73.0 and 60.5 and 66.8
Human α-thrombin; peptide 2.54E-04 uM
  Human alpha thrombin inhibition, slope normalized to DMSO: 97.8 and 93.6 and 92.8
Human α-thrombin; peptide 2.60E-01 uM
  Human alpha thrombin inhibition, slope normalized to DMSO: 88.6 and 90.7 and 89.6
Human α-thrombin; peptide 3.18E-05 uM
  Human alpha thrombin inhibition, slope normalized to DMSO: 97.1 and 94.4 and 99.6
Human α-thrombin; peptide 3.26E-02 uM
  Human alpha thrombin inhibition, slope normalized to DMSO: 101.4 and 92.5 and 97.5
Human α-thrombin; peptide 3.33E+01 uM
  Human alpha thrombin inhibition, slope normalized to DMSO: 14.8 and 16.8 and 15.8
Human α-thrombin; peptide 4.07E-03 uM
  Human alpha thrombin inhibition, slope normalized to DMSO: 99.3 and 94.9 and 93.4
Human α-thrombin; peptide 4.17E+00 uM
  Human alpha thrombin inhibition, slope normalized to DMSO: 57.1 (2×) and 55.7
Human α-thrombin; peptide 5.09E-04 uM
  Human alpha thrombin inhibition, slope normalized to DMSO: 99.4 and 94.7 and 120.6
Human α-thrombin; peptide 5.21E-01 uM
  Human alpha thrombin inhibition, slope normalized to DMSO: 84.0 and 81.7 and 83.0
Human α-thrombin; peptide 6.36E-05 uM
  Human alpha thrombin inhibition, slope normalized to DMSO: 93.6 and 95.3 and 99.3
Human α-thrombin; peptide 6.51E-02 uM
  Human alpha thrombin inhibition, slope normalized to DMSO: 95.9 and 74.7 and 94.1
Human α-thrombin; peptide 6.67E+01 uM
  Human alpha thrombin inhibition, slope normalized to DMSO: 13.4 and 15.6 and 21.8
Human α-thrombin; peptide 8.14E-03 uM
  Human alpha thrombin inhibition, slope normalized to DMSO: 96.7 and 95.4 and 97.4
Human α-thrombin; peptide 8.33E+00 uM
  Human alpha thrombin inhibition, slope normalized to DMSO: 44.0 and 41.9 and 43.6
[1]; [5]
  microsomal CLint: 99.1 µL/min/mg
[1]; [6]
  microsomal CLint: 76.5 µL/min/mg
[1]; [7]
  microsomal CLint: 112 µL/min/mg
[1]; [8]
  half-life: 14 min
[1]; [9]
  half-life: 18.1 min
[1]; [10]
  half-life: 12.4 min
[1]; [11]
  half-life: 14.8 ± 2.4 min
[1]; [12]
  microsomal CLint: 96 ± 15 µL/min/mg
Rat α-thrombin; [4]
  Rat alpha thrombin inhibition, slope normalized to DMSO: 3.8 and 4.8 and 16.3
Rat α-thrombin; peptide 1.67E+01 uM
  Rat alpha thrombin inhibition, slope normalized to DMSO: 8.5 and 7.5 and 19.4
Rat α-thrombin; peptide 2.08E+00 uM
  Rat alpha thrombin inhibition, slope normalized to DMSO: 35.4 and 36.0 and 40.9
Rat α-thrombin; peptide 3.33E+01 uM
  Rat alpha thrombin inhibition, slope normalized to DMSO: 4.1 and 4.6 and 17.1
Rat α-thrombin; peptide 4.17E+00 uM
  Rat alpha thrombin inhibition, slope normalized to DMSO: 23.4 and 23.3 and 26.8
Rat α-thrombin; peptide 6.67E+01 uM
  Rat alpha thrombin inhibition, slope normalized to DMSO: 3.8 and 4.6 and 15.5
Rat α-thrombin; peptide 8.33E+00 uM
  Rat alpha thrombin inhibition, slope normalized to DMSO: 13.7 and 14.0 and 21.8
[2]
  PAMPA permeability: % permeability: 0.62 ± 0.14%
  Papp at 50 μM: 0.407 nm/s
  Permeability% Average: 0.6%
  Permeability% R1: 0.77%
  Permeability% R3: 0.57%
Porcine pancreatin
  SIF stability, Residual peptide Average: 93.12
  SIF stability, Residual peptide: 102.84 and 84.15 and 92.36
[3]
  remaining at 8 h: 93 ± 9%

## C[C@@H]1NC(=O)[C@@H](NC(=O)c2ccc(Cl)s2)CSCc2cccc(n2)CSCCNC(=O)c2ccc(cc2)CNC1=O [compound 26]
Porcine pepsin
  SGF stability, Residual peptide Average: 97.08
  SGF stability, Residual peptide: 97.29 and 98.54 and 95.42
  remaining at 8 h: 97 ± 2%
Human α-thrombin; peptide 1.02E-03 uM
  Human alpha thrombin inhibition, slope normalized to DMSO: 99.9 and 93.8 and 93.5
Human α-thrombin; peptide 1.04E+00 uM
  Human alpha thrombin inhibition, slope normalized to DMSO: 74.0 and 69.6 and 63.3
Human α-thrombin; peptide 1.27E-04 uM
  Human alpha thrombin inhibition, slope normalized to DMSO: 95.9 and 97.1 and 89.9
Human α-thrombin; peptide 1.30E-01 uM
  Human alpha thrombin inhibition, slope normalized to DMSO: 97.4 and 88.7 and 84.7
Human α-thrombin; [4]
  Human alpha thrombin inhibition, slope normalized to DMSO: 48.0 and 48.9 and 38.9
Human α-thrombin; peptide 1.63E-02 uM
  Human alpha thrombin inhibition, slope normalized to DMSO: 100.4 and 97.8 and 90.3
Human α-thrombin; peptide 1.67E+01 uM
  Human alpha thrombin inhibition, slope normalized to DMSO: 53.6 and 73.4 and 36.5
Human α-thrombin; peptide 2.03E-03 uM
  Human alpha thrombin inhibition, slope normalized to DMSO: 104.9 and 96.2 and 90.3
Human α-thrombin; peptide 2.08E+00 uM
  Human alpha thrombin inhibition, slope normalized to DMSO: 55.5 and 68.9 and 56.1
Human α-thrombin; peptide 2.54E-04 uM
  Human alpha thrombin inhibition, slope normalized to DMSO: 98.8 and 99.4 and 90.5
Human α-thrombin; peptide 2.60E-01 uM
  Human alpha thrombin inhibition, slope normalized to DMSO: 80.8 and 89.0 and 86.0
Human α-thrombin; peptide 3.18E-05 uM
  Human alpha thrombin inhibition, slope normalized to DMSO: 84.7 and 96.5 and 92.2
Human α-thrombin; peptide 3.26E-02 uM
  Human alpha thrombin inhibition, slope normalized to DMSO: 93.0 and 90.7 and 88.1
Human α-thrombin; peptide 3.33E+01 uM
  Human alpha thrombin inhibition, slope normalized to DMSO: 66.3 and 62.6 and 52.3
Human α-thrombin; peptide 4.07E-03 uM
  Human alpha thrombin inhibition, slope normalized to DMSO: 103.1 and 97.8 and 89.7
Human α-thrombin; peptide 4.17E+00 uM
  Human alpha thrombin inhibition, slope normalized to DMSO: 60.4 and 78.0 and 53.8
Human α-thrombin; peptide 5.09E-04 uM
  Human alpha thrombin inhibition, slope normalized to DMSO: 103.6 and 97.9 and 97.0
Human α-thrombin; peptide 5.21E-01 uM
  Human alpha thrombin inhibition, slope normalized to DMSO: 81.6 and 82.6 and 73.0
Human α-thrombin; peptide 6.36E-05 uM
  Human alpha thrombin inhibition, slope normalized to DMSO: 100.1 and 99.2 and 93.6
Human α-thrombin; peptide 6.51E-02 uM
  Human alpha thrombin inhibition, slope normalized to DMSO: 92.5 and 99.9 and 84.8
Human α-thrombin; peptide 6.67E+01 uM
  Human alpha thrombin inhibition, slope normalized to DMSO: 54.4 and 57.2 and 52.4
Human α-thrombin; peptide 8.14E-03 uM
  Human alpha thrombin inhibition, slope normalized to DMSO: 104.4 and 96.4 and 91.9
Human α-thrombin; peptide 8.33E+00 uM
  Human alpha thrombin inhibition, slope normalized to DMSO: 36.8 and 64.2 and 38.3
[1]; [5]
  microsomal CLint: 73.3 µL/min/mg
[1]; [6]
  microsomal CLint: 121 µL/min/mg
[1]; [7]
  microsomal CLint: 129 µL/min/mg
[1]; [8]
  half-life: 18.9 min
[1]; [9]
  half-life: 11.4 min
[1]; [10]
  half-life: 10.8 min
[1]; [11]
  half-life: 13.7 ± 3.7 min
[1]; [12]
  microsomal CLint: 108 ± 25 µL/min/mg
Rat α-thrombin; [4]
  Rat alpha thrombin inhibition, slope normalized to DMSO: 14.8 and 14.9 and 15.8
Rat α-thrombin; peptide 1.67E+01 uM
  Rat alpha thrombin inhibition, slope normalized to DMSO: 13.6 and 25.5 and 34.3
Rat α-thrombin; peptide 2.08E+00 uM
  Rat alpha thrombin inhibition, slope normalized to DMSO: 26.5 and 27.8 and 27.7
Rat α-thrombin; peptide 3.33E+01 uM
  Rat alpha thrombin inhibition, slope normalized to DMSO: 22.7 and 27.1 and 25.7
Rat α-thrombin; peptide 4.17E+00 uM
  Rat alpha thrombin inhibition, slope normalized to DMSO: 20.6 (2×) and 20.4
Rat α-thrombin; peptide 6.67E+01 uM
  Rat alpha thrombin inhibition, slope normalized to DMSO: 19.9 and 22.5 and 21.1
Rat α-thrombin; peptide 8.33E+00 uM
  Rat alpha thrombin inhibition, slope normalized to DMSO: 13.5 and 20.1 and 24.1
[2]
  PAMPA permeability: % permeability: 4.3 ± 1.6%
  Papp at 50 μM: 2.75 nm/s
  Permeability% Average: 4.3%
  Permeability% R1: 2.49%
  Permeability% R3: 5.45%
Porcine pancreatin
  SIF stability, Residual peptide Average: 88.29
  SIF stability, Residual peptide: 90.18 and 82.19 and 92.51
[3]
  remaining at 8 h: 88 ± 5%
